Patent publication US4065356A, “Production of antibiotic FR-02A (efrotomycin) by streptomyces lactamdurans” (priority 1977, dated 1977)
Entries after “also recorded” stand apart in the source; their conditions may differ.

Experiments:
[1] = test system: S. aureus (res. Erythromycin) 1909; test: Antibiotic Spectrum Profile, agar diffusion test; format: cell-based; conditions: Staphylococcus aureus, 1 mg./ml., read-out: Diameters of Inhibition Zones
E. acervulina = test: in vitro activity; format: cell-based
Aerobacter aerogenes 835 = test: Antibiotic Spectrum Profile, agar diffusion test; format: cell-based; conditions: Klebsiella aerogenes, 1 mg./ml., read-out: Diameters of Inhibition Zones
[2] = test system: Bacillus subtilis (MB 964); test: in vitro activity; format: cell-based
gram-negative bacteria = test: antibacterial activity; format: cell-based
Streptococcusagalactiae = test: in vitro activity; format: cell-based
[3] = growth promotion in animals; format: in vivo, animals such as chickens, sheep and cattle; conditions: feed additive
[4] = toxicity studies in noninfected mice; format: in vivo; conditions: for Toxicity, Tolerated / Toxicity, Toxic: IP
Protocol: (§1) *Values in the table are expressed in mg./mouse. Both infections and
(§2) therapeutic doses of FR-02A were administered intraperitoneally. FR-02A
(§3) was administered at time of infection and again 6 hours later.
**Toxicity studies of FR-02A in noninfected mice indicate that two doses
of 2.5 mg./mouse, 6 hours apart are tolerated; but higher doses i.e. 5 to […]

[5] = test system: Pseudomonas stutzeri (MB 2765); test: in vitro activity; format: cell-based
species of Pasteurella = test: in vitro activity; format: cell-based
Vibrio percolans 1272 = test: Antibiotic Spectrum Profile, agar diffusion test; format: cell-based; conditions: Comamonas terrigena, 1 mg./ml., read-out: Diameters of Inhibition Zones
[6] = test system: Staphylococcus aureus (MB 210); test: in vitro activity; format: cell-based
coccidia [7] = test: activity against coccidia; format: cell-based
[8] = test system: Vibrio percolans American Type Culture Collection (ATCC 8461); test: disc-plate assay, zone of inhibition; format: cell-based
Protocol: Assays were run by the disc-plate procedure using 3/8 inch filter paper discs. The assay plates were prepared using Difco nutrient agar plus 2.0 g./l. Difco yeast extract at 10 ml. per plate. An overnight growth of the assay organism, Vibrio percolans American Type Culture Collection (ATCC 8461) in nutrient broth plus 0.2% yeast extract was diluted in sterile saline solution to a suspension having 40% transmittance at a wave length of 660 mμ. This suspension was added at 20 ml./liter of medium prior to pouring the plates.
The assay plates were held at 4° C. until used (5 day maximum). Following the application of the antibiotic-saturated assay discs the plates were incubated at 28° C. for a period of from 16 to 24 hours. Zones of inhibition were read as mm. diameter. They were used to determine relative potencies or, when compared with a purified reference standard, the potency in μg./ml. Assays of FR-02A in fermentation broths, mycelia and suspended nutrient matter separated from fermentation broths and in broths free of solids were performed after extracting the FR-02A into a suitable solvent. […] When such an assay is performed in a quantitative fashion, from 50 to 100 μg./ml. of antibiotic can be detected.

M. synoviae = test: in vitro activity; format: cell-based
PPLO = PPLO in chickens; format: in vivo
Alcaligenes faecalis 10 = test: Antibiotic Spectrum Profile, agar diffusion test; format: cell-based; conditions: 1 mg./ml., read-out: Diameters of Inhibition Zones
coccidia [9] = test: chicken coccidiosis; format: in vivo; conditions: most prevalent types
Proteus vulgaris 838 = test: Antibiotic Spectrum Profile, agar diffusion test; format: cell-based; conditions: 1 mg./ml., read-out: Diameters of Inhibition Zones
coccidia [10] = test: mouse coccidiosis; conditions: in vivo
[11] = test system: Pseudomonas stutzeri (MB 1231); test: in vitro activity; format: cell-based
Strep. pyogenes = test: in vivo test in mice, Strep. pyogenes infection; conditions: infection IP, therapy IP, at time of infection and 6 hours later
Protocol: as §1, §2, §3

Proteus vulgaris 1012 = test: Antibiotic Spectrum Profile, agar diffusion test; format: cell-based; conditions: 1 mg./ml., read-out: Diameters of Inhibition Zones
Sarcina lutea 1101 = test: Antibiotic Spectrum Profile, agar diffusion test; format: cell-based; conditions: Micrococcus luteus, 1 mg./ml., read-out: Diameters of Inhibition Zones
Erwinia auroseptica 1159 = test: Antibiotic Spectrum Profile, agar diffusion test; format: cell-based; conditions: 1 mg./ml., read-out: Diameters of Inhibition Zones
S. aureus 2756 = test: Antibiotic Spectrum Profile, agar diffusion test; format: cell-based; conditions: Staphylococcus aureus, 1 mg./ml., read-out: Diameters of Inhibition Zones
M. hyorthinis = test: in vitro activity; format: cell-based
S. aureus 3032 = test: Antibiotic Spectrum Profile, agar diffusion test; format: cell-based; conditions: Staphylococcus aureus, 1 mg./ml., read-out: Diameters of Inhibition Zones
Proteus vulgaris = test: in vitro activity; format: cell-based
E. coli 60 = test: Antibiotic Spectrum Profile, agar diffusion test; format: cell-based; conditions: Escherichia coli, 1 mg./ml., read-out: Diameters of Inhibition Zones
Bacillus sp. 633 = test: Antibiotic Spectrum Profile, agar diffusion test; format: cell-based; conditions: 1 mg./ml., read-out: Diameters of Inhibition Zones
Protocol: To further characterize FR-02A in vitro, activity data for it was obtained using an antibiotic spectrum profile. The test involves applications of a droplet of antibiotic approximately 0.015 ml. on the surface of seeded complex agar plates. […] The results are reported in Table 1 in terms of mm. of inhibition zones.

Bacillus subtilis 964 = test: Antibiotic Spectrum Profile, agar diffusion test; format: cell-based; conditions: 1 mg./ml., read-out: Diameters of Inhibition Zones
[12] = test system: Salmonella gallinarum 1287; test: Antibiotic Spectrum Profile, agar diffusion test; format: cell-based; conditions: Salmonella enterica, 1 mg./ml., read-out: Diameters of Inhibition Zones
Streptococcus faecum = test: in vitro activity; format: cell-based
M. gallisepticum = M. gallisepticum air sacculitis in broilers; format: in vivo

For `CC=CC=CC1OC(O)(C(CC)C(=O)NCC=CC=C(C)C(OC)C(C)C2OC(C=CC=CC=C(C)C(=O)c3c(O)ccn(C)c3=O)C(O)C2O)C(O)C(OC2OC(C)C(OC3OC(C)C(OC)C(O)C3OC)C(OC)C2O)C1(C)C` (stereo not drawn) [FR-02A, efrotomycin], the zone of inhibition at 1000 µg/mL [1] was 16 mm, the in vitro activity (E. acervulina) was “effective” and the zone of inhibition at 1000 µg/mL (Aerobacter aerogenes 835) was 13 mm. For the same compound, the activity [2] was “Activity was also found”, the “activity against gram-negative bacteria” value (gram-negative bacteria) was “shows activity; also recorded: effective” and the in vitro activity (Streptococcusagalactiae) was “effective”. For the same compound, the growth promotion [3] was “shortens the time required for bringing animals up to marketable weight”, the “Toxicity, Tolerated” value ([4]; Table 2 line Proteus vulgaris) was 5.0 mg./mouse and the “Toxicity, Toxic” value ([4]; Table 2 line Proteus vulgaris) was 5.0 mg./mouse. The “Toxicity, Tolerated” value ([4]; Table 2 line Strep. pyogenes) was 1.25 mg./mouse, the “Toxicity, Toxic” value ([4]; Table 2 line Strep. pyogenes) was 5.0 mg./mouse and the toxicity in vivo ([4]; in mice, in words) was “low toxicity”. For the same compound, the tolerated dose ([4]; noninfected mice, two doses 6 hours apart) was 2.5 mg./mouse, the activity [5] was “Activity was also found” and the in vitro activity (species of Pasteurella) was “effective”. The zone of inhibition at 1000 µg/mL (Vibrio percolans 1272) was 21 mm, the activity [6] was “Activity was also found” and the activity against coccidia (coccidia [7]) was “shows activity”. The zone of inhibition at 200 µg/mL ([8]; Comamonas terrigena, ATCC8461, 200 μg./ml., 3/8 inch discs, read-out: zones of inhibition) was 16 mm, the activity ([8]; Vibrio percolans (ATCC 8461)) was “Activity was also found” and the in vitro activity (M. synoviae) was “effective”. The “efficacy against PPLO” value (PPLO) was “effective”, the zone of inhibition at 1000 µg/mL (Alcaligenes faecalis 10) was 19 mm and the “efficacy against chicken coccidiosis” value (coccidia [9]) was “effective”. The zone of inhibition at 1000 µg/mL (Proteus vulgaris 838) was 18 mm, the “efficacy against mouse coccidiosis” value (coccidia [10]) was “effective” and the activity [11] was “Activity was also found”. For the same compound, the ED50 (Strep. pyogenes) was 0.247 mg./mouse, the zone of inhibition at 1000 µg/mL (Proteus vulgaris 1012) was 10 mm and the zone of inhibition at 1000 µg/mL (Sarcina lutea 1101) was 28 mm. For the same compound, the zone of inhibition at 1000 µg/mL (Erwinia auroseptica 1159) was 12 mm, the zone of inhibition at 1000 µg/mL (S. aureus 2756) was 23 mm and the in vitro activity (M. hyorthinis) was “effective”. For the same compound, the zone of inhibition at 1000 µg/mL (S. aureus 3032) was 12 mm, the in vitro activity (Proteus vulgaris) was “effective” and the zone of inhibition at 1000 µg/mL (E. coli 60) was 10 mm. It also gave a zone of inhibition at 1000 µg/mL (Bacillus sp. 633) of 18 mm, a zone of inhibition at 1000 µg/mL (Bacillus subtilis 964) of 19 mm and a zone of inhibition at 1000 µg/mL [12] of 13 mm. For the same compound, the in vitro activity (Streptococcus faecum) was “effective”, the ED50 (M. gallisepticum; Mycoplasmoides gallisepticum, air sacculitis in broilers) was 40 to 100 mg/kg and the “efficacy against M. gallisepticum air sacculitis” value (M. gallisepticum; subcutaneously, broilers) was “efficacious”.
